Patent publication US10696693B2, “Fused imidazole derivatives as TGF-beta inhibitors” (Rigel Pharmaceuticals, Inc., priority 2014, dated 2020)
Where two headings read alike, the source gives them in different places.

Experiments:
[1] = system: GDF8; experiment: AlphaScreen SureFire p-SMAD3 (Ser423/425) assay, GDF8-stimulated cells; assay type: cell-based; settings: Mus musculus
Outline: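 A SureFire AlphaScreen assay measured phosphorylation of endogenous SMAD-3 at Ser423/425 in cell lysates. Cells were treated with three-fold serially diluted compounds in DMSO for about 10 minutes, then stimulated with GDF8. After medium removal, cells were lysed in 1× Lysis Buffer (about 25 μL) with gentle shaking for 5-10 minutes.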

[2] = system: TGF-β; experiment: AlphaScreen SureFire p-SMAD3 (Ser423/425) assay, TGF-β-stimulated cells; assay type: cell-based; settings: Mus musculus
Outline: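 The p-SMAD-3 (Ser423/425) SureFire assay measured phosphorylation of endogenous SMAD-3 in cell lysates. Cells were plated overnight in collagen-coated plates, exposed to three-fold serially diluted compounds for about 10 minutes, then stimulated with TGFβ. Lysates (5 μL) received acceptor bead mix for 2 hours, then donor beads for 1½ hours before AlphaScreen reading.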

[3] = MPC-11, p-SMAD3 (Ser423/425) AlphaScreen in cell lysate, MPC11, GDF8 stimulation, read-out: GDF8: inhibition of GDF8 signaling, GDF pSMAD (MPC11)
[4] = p-SMAD3 (Ser423/425) AlphaScreen in cell lysate, MPC-11, TGF-β stimulation, read-out: TGF-β: inhibition of TGF-β signaling, TGF-β pSMAD (MPC-11)
[5] = MPC-11, read-out: GDF8: inhibition of GDF8 signaling, GDF pSMAD (MPC11), p-SMAD3 (Ser423/425) AlphaScreen in cell lysate, GDF8 stimulation
[6] = MPC-11, read-out: TGF-β: inhibition of TGF-β signaling, TGF-β pSMAD (MPC-11), p-SMAD3 (Ser423/425) AlphaScreen in cell lysate, TGF-β stimulation

| IC50 [1, 3] [nM] | IC50 [2, 4] [nM] | Structure (SMILES) | IC50 [1, 5] [nM] | IC50 [2, 6] [nM] |
| --- | --- | --- | --- | --- |
| > 1000 | > 1000 | CNCC1CCC2(CC1)Cc1nc(-c3ccc(F)cc3)c(-c3ccc4ncnn4c3)n1C2 (stereo not drawn) [Compound 86, 1-(3′-([1,2,4]triazolo[1,5-a]pyridin-6-yl)-2′-(4-fluorophenyl)-5′H,7′H-spiro[cyclohexane-1,6′-pyrrolo[1,2-a]imidazol]-4-yl)-N-methylmethanamine] | – | – |
| > 1000 | > 1000 | CN(C)CC1CCC2(CC1)Cc1nc(-c3ccc(F)cc3)c(-c3ccc4ncnn4c3)n1C2 (stereo not drawn) [Compound 87, 1-(3′-([1,2,4]triazolo[1,5-a]pyridin-6-yl)-2′-(4-fluorophenyl)-5′H,7′H-spiro[cyclohexane-1,6′-pyrrolo[1,2-a]imidazol]-4-yl)-N,N-dimethylmethanamine] | – | – |
| > 1000 | > 1000 | O=C(OCc1ccccc1)N1CCC2Cn3c(nc(-c4ccc(F)cc4)c3-c3ccc4ncnn4c3)C2C1 (stereo not drawn) [Compound 88, benzyl 3-([1,2,4]triazolo[1,5-a]pyridin-6-yl)-2-(4-fluorophenyl)-5,5a,6,7,9,9a-hexahydro-8H-imidazo[1′,2′:1,2]pyrrolo[3,4-c]pyridine-8-carboxylate] | – | – |
| > 1000 | > 1000 | CN1CCC2Cn3c(nc(-c4ccc(F)cc4)c3-c3ccc4ncnn4c3)C2C1 (stereo not drawn) [Compound 89, 3-([1,2,4]triazolo[1,5-a]pyridin-6-yl)-2-(4-fluorophenyl)-8-methyl-5a,6,7,8,9,9a-hexahydro-5H-imidazo[1′,2′:1,2]pyrrolo[3,4-c]pyridine] | – | – |
| 100 to 1000 | 100 to 1000 | Cc1ccc(Cl)cc1-c1nc2n(c1-c1ccc3ncnn3c1)CCC2 [Compound 90, 6-(2-(5-chloro-2-methyl)-6,7-dihydro-5H-pyrrolo[1,2-a]imidazol-3-yl)-[1,2,4]triaolo[1,5-a]pyridine] | – | – |
| > 1000 | > 1000 | Cc1ccc(-c2ccc3ncnn3c2)cc1-c1nc2n(c1-c1ccc3ncnn3c1)CCC2 [Compound 91, 6-(2-(5-([1,2,4]triazolo[1,5-a]pyridin-6-yl)-2-methylphenyl)-6,7-dihydro-5H-pyrrolo[1,2-a]imidazol-3-yl)-[1,2,4]triazolo[1,5-a]pyridine] | – | – |
| – | – | Clc1ccc(Cl)c(-c2nc3n(c2-c2ccc4ncnn4c2)CCC3)c1 [Compound 92, 6-(2-(2,5-dichlorophenyl)-6,7-dihydro-5H-pyrrolo[1,2-a]imidazol-3-yl)-[1,2,4]triazolo[1,5-a]pyridine] | 50 to 100 | 100 to 1000 |
| – | – | Clc1ccc(Cl)c(-c2nc3n(c2-c2ccc4nccn4c2)CCC3)c1 [Compound 93, 6-(2-(2,5-dichlorophenyl)-6,7-dihydro-5H-pyrrolo[1,2-a]imidazol-3-yl)imidazo[1,2-a]pyridine] | < 50 | 50 to 100 |
| < 50 | < 50 | Fc1cc(F)c(-c2nc3n(c2-c2ccc4ncnn4c2)CCC3)cc1Cl [Compound 94, 6-(2-(5-chloro-2,4-difluoro)-6,7-dihydro-5H-pyrrolo[1,2-a]imidazol-3-yl)-[1,2,4]triazolo[1,5-a]pyridine] | – | – |
| – | – | COc1ccc(-c2nc3n(c2-c2ccc4ncnn4c2)CCC3)cc1 [Compound 95, 6-(2-(4-methoxyphenyl)-6,7-dihydro-5H-pyrrolo[1,2-a]imidazol-3-yl)-[1,2,4]triazolo[1,5-a]pyridine] | > 1000 | > 1000 |
| < 50 | < 50 | Cc1ccc(F)c(-c2nc3n(c2-c2ccc4ncnn4c2)CCC3)c1 [Compound 96, 6-(2-(2-fluoro-5-methylphenyl)-6,7-dihydro-5H-pyrrolo[1,2-a]imidazol-3-yl)-[1,2,4]triazolo[1,5-a]pyridine] | – | – |
| 100 to 1000 | 100 to 1000 | Fc1cc(F)c(F)c(-c2nc3n(c2-c2cc4cnccc4s2)CCC3)c1 [Compound 98, 2-(2-(2,3,5-trifluorophenyl)-6,7-dihydro-5H-pyrrolo[1,2-a]imidazol-3-yl)thieno[3,2-c]pyridine] | – | – |
| 50 to 100 | 100 to 1000 | Fc1cc(F)c(-c2nc3n(c2-c2cc4cnccc4s2)CCC3)cc1F [Compound 99, 2-(2-(2,4,5-trifluorophenyl)-6,7-dihydro-5H-pyrrolo[1,2-a]imidazol-3-yl)thieno[3,2-c]pyridine] | – | – |
| 100 to 1000 | > 1000 | Fc1ccccc1-c1nc2n(c1-c1cc3cnccc3s1)CCC2 [Compound 100, 2-(2-(2-fluorophenyl)-6,7-dihydro-5H-pyrrolo[1,2-a]imidazol-3-yl)thieno[3,2-c]pyridine] | – | – |
| 100 to 1000 | 100 to 1000 | Fc1ccc(-c2nc3n(c2-c2cc4cnccc4s2)CCC3)cc1 [Compound 101, 2-(2-(4-fluorophenyl)-6,7-dihydro-5H-pyrrolo[1,2-a]imidazol-3-yl)thieno[3,2-c]pyridine] | – | – |
| < 50 | 50 to 100 | Fc1ccc(Cl)cc1-c1nc2n(c1-c1cc3cnccc3s1)CCC2 [Compound 102, 2-(2-(5-chloro-2-fluorophenyl)-6,7-dihydro-5H-pyrrolo[1,2-a]imidazol-3-yl)thieno[3,2-c]pyridine] | – | – |
| < 50 | < 50 | Fc1cc(F)c(-c2nc3n(c2-c2ccc4ncsc4c2)CCN3)cc1F [Compound 103, 6-(6-(2,4,5-trifluorophenyl)-2,3-dihydro-1H-imidazo[1,2-a]imidazol-5-yl)benzo[d]thiazole] | – | – |
| > 1000 | > 1000 | CC(=O)N1CCn2c1nc(-c1cc(F)c(F)cc1F)c2-c1ccc2ncnn2c1 [Compound 104, 1-(5-([1,2,4]triazolo[1,5-a]pyridin-6-yl)-6-(2,4,5-trifluorophenyl)-2,3-dihydro-1H-imidazo[1,2-a]imidazol-1-yl)ethan-1-one] | – | – |
| < 50 | < 50 | Fc1cc(F)c(-c2nc3n(c2-c2ccc4ncnn4c2)CCN3)cc1F [Compound 105, 6-(6-(2,4,5-trifluorophenyl)-2,3-dihydro-1H-imidazo[1,2-a]imidazol-5-yl)-[1,2,4]triazolo[1,5-a]pyridine] | – | – |
| < 50 | < 50 | Fc1cc(F)c(-c2nc3n(c2-c2ccc4nccnc4c2)CCN3)cc1F [Compound 106, 6-(6-(2,4,5-trifluorophenyl)-2,3-dihydro-1H-imidazo[1,2-a]imidazol-5-yl)quinoxaline] | – | – |
| < 50 | < 50 | Fc1cc(F)c(-c2nc3n(c2-c2ccc4ncccc4c2)CCN3)cc1F [Compound 107, 6-(6-(2,4,5-trifluorophenyl)-2,3-dihydro-1H-imidazo[1,2-a]imidazol-5-yl)quinoline] | – | – |
| < 50 | < 50 | Fc1cc(F)c(-c2nc3n(c2-c2ccc4nccn4c2)CCN3)cc1F [Compound 108, 6-(6-(2,4,5-trifluorophenyl)-2,3-dihydro-1H-imidazo[1,2-a]imidazol-5-yl)imidazo[1,2-a]pyridine] | – | – |
| < 50 | < 50 | CC(=O)N1CCn2c1nc(-c1cc(F)cc(F)c1F)c2-c1ccc2ncnn2c1 [Compound 109, 1-(5-([1,2,4]triazolo[1,5-a]pyridin-6-yl)-6-(2,3,5-trifluorophenyl)-2,3-dihydro-1H-imidazo[1,2-a]imidazol-1-yl)ethan-1-one] | – | – |
| < 50 | < 50 | Fc1cc(F)c(F)c(-c2nc3n(c2-c2ccc4ncccc4c2)CCN3)c1 [Compound 110, 6-(6-(2,3,5-trifluorophenyl)-2,3-dihydro-1H-imidazo[1,2-a]imidazol-5-yl)quinoline] | – | – |
| < 50 | < 50 | Fc1cc(F)c(F)c(-c2nc3n(c2-c2ccc4nccnc4c2)CCN3)c1 [Compound 111, 6-(6-(2,3,5-trifluorophenyl)-2,3-dihydro-1H-imidazo[1,2-a]imidazol-5-yl)quinoxaline] | – | – |
| < 50 | < 50 | Fc1cc(F)c(F)c(-c2nc3n(c2-c2cc4cnccc4s2)CCN3)c1 [Compound 112, 2-(6-(2,3,5-trifluorophenyl)-2,3-dihydro-1H-imidazo[1,2-a]imidazol-5-yl)thieno[3,2-c]pyridine] | – | – |
| 50 to 100 | 50 to 100 | Nc1ncnc2ccc(-c3c(-c4cc(F)cc(F)c4F)nc4n3CCN4)cc12 [Compound 113, 6-(6-(2,3,5-trifluorophenyl)-2,3-dihydro-1H-imidazo[1,2-a]imidazol-5-yl)quinazolin-4-amine] | – | – |
| 100 to 1000 | 100 to 1000 | COCCOc1cnc2ccc(-c3c(-c4cc(F)c(F)cc4F)nc4n3CCN4)cc2n1 [Compound 115, 2-(2-methoxyethoxy)-7-(6-(2,4,5-trifluorophenyl)-2,3-dihydro-1H-imidazo[1,2-a]imidazol-5-yl)quinoxaline] | – | – |
| < 50 | < 50 | Fc1cc(F)c(-c2nc3n(c2-c2cc4cnccc4s2)CCN3)cc1F [Compound 116, 2-(6-(2,4,5-trifluorophenyl)-2,3-dihydro-1H-imidazo[1,2-a]imidazol-5-yl)thieno[3,2-c]pyridine] | – | – |
| – | – | COCCOc1cnc2ccc(-c3c(-c4cc(F)cc(F)c4F)nc4n3CCN4)cc2n1 [Compound 117, 2-(2-methoxyethoxy)-7-(2-(2,3,5-trifluorophenyl)-5,6-dihydro-7λ^2-imidazo[3,2-a]imidazol-3-yl)quinoxaline] | 100 to 1000 | > 1000 |
